Values quoted from earlier work in patent publication US20220119489A1, “COMPOSITIONS AND METHODS FOR TREATING MUSCULAR DYSTROPHY AND RELATED DISORDERS” (CHILDREN'S MEDICAL CENTER CORPORATION, priority 2019, published 2022).

What was measured:
[1] = test system: CD82; conditions: Pompe disease patients under treatment
[2] = test system: CD82; conditions: stated as previously shown, no test described

| Compound | increase of muscle CD82 expression compared to baseline levels [1] | expression of CD82 [2] |
| --- | --- | --- |
| recombinant human lysosomal acid alpha glucosidase: recombinant enzyme used to treat Pompe disease patients | 25-50% |  |
| CC(=O)C(=O)[O-].[Na+] [sodium pyruvate] |  | increase expression of CD82 |
| C[C@]12COC(=O)C[C@@H]1CC[C@@H]1[C@@H]2CC[C@@]2(C)[C@H]1CC[C@]2(C)O [oxandrolone] |  | increase expression of CD82 |
